# Where “and” joins values, the source holds several entries; their conditions need not be identical. Identical values can stand only once.
# How the values were obtained:
# Sprague-Dawley rats = assay: In vivo sedative/hypnotic testing, IV bolus, rats; design: species or system rat; details: rats
# Method: Animals were housed in a dedicated room at the vivarium of VivoPath Inc., located at Redstone Center, 55 Union Street, Worcester, Mass. Housing and care was as specified in the USDA Animal Welfare Act (9 CFR, Parts 1, 2, and 3) and as described in the Guide for the Care and Use of Laboratory Animals from the National Research Council. Environmental conditions of housing rooms are set at the following ranges: temperature: 70±7° F. (22±4° C.), humidity: 50±20%, light cycle: 12-hour light/12-hour dark cycle—lights on at 7 am and off at 7 pm., air changes: ten or more air changes per hour with 100% fresh air. The animals' body weights were measured prior to the first dose on each experimental day.
# Adult male Sprague-Dawley rats (225-300 g) were purchased from Harlan (South Easton, Mass.).
# Drugs were prepared in either dimethylsulfoxide/saline or saline vehicle or hydroxypropyl-β-cyclodextrin (20% in water, pH 7.0) solution and were administered as an intravenous bolus injection. Animals received 1-4 doses of drug(s) during an experimental day, either ascending doses or different drugs. Doses were administered at intervals equal to the longer of 1 h or 10-times the duration of apparent sedative/hypnotic effects from the previous dose. The sedative/hypnotic properties of the drugs were evaluated by observation of the rats, ranging from mild excitation, mild sedation apparent due to reduced activity, and moderate sedation to hypnosis reflected by loss of righting reflex (LORR, the ability to place rear and hind legs under the body, as well as attenuation/loss of nociceptive reflexes).
# in vivo = details: rat
# [1] = Pharmacokinetics in dogs, IV bolus and bolus plus infusion; assay type: in vivo, dog
# rats = assay: loss of righting reflexes (LORR) assay after IV bolus
# Method: Adult male Sprague-Dawley rats (230-350 gm) were purchased from Charles River Laboratories (Wilmington, Mass.) and housed in the Massachusetts General Hospital Center for Comparative Medicine animal care facility. All drugs were administered through a femoral venous catheter pre-implanted by the vendor prior to animal delivery to our animal care facility.
# Immediately after injection, rats were turned supine. […] A stopwatch was used to measure the duration of LORR, which was defined as the time from drug injection until the animal spontaneously righted itself.
# [2] = In vitro metabolic half-life of hypnotics in rat blood; assay type: in vitro ADME; details: rat
# Method: On the day of study, whole blood was drawn from the femoral venous catheters of 3 Sprague-Dawley rats (1-2 ml/rat), immediately anticoagulated with heparin (38 U), pooled, and stored on ice. A 1 ml aliquot of blood was warmed at 37° C. for 5 minutes and hypnotic (from a 40 mM in dimethyl sulfoxide stock solution) was added to a final concentration of 100 μM. After the desired incubation time, a 150 μl sample was removed and the metabolic reaction was quenched with 150 μl acetonitrile (Sigma-Aldrich, St. Louis, Mo.). Zero time point samples were prepared by adding 150 μl acetonitrile to blood prior to adding hypnotic (from a 4 mM in dimethyl sulfoxide stock solution). The quenched samples were centrifuged and the resultant supernatant separated and stored at −20° C. until analyzed. Hypnotic concentrations in thawed samples were determined by high performance liquid chromatography using a Varian Prostar system with a 4.6×250 mm Proto 300 C18 column (Nest Group, Southborough, Mass.) with the UV detector set at 240 nm.
# [3] = Pharmacokinetics in rats, IV bolus and bolus plus infusion
# [4] = Octanol:water partition coefficients; assay type: physicochemical; details: 10 mM Tris pH 7.4; read-out: Octanol/Water Partition Coefficient ± SD (converted)
# Method: One mg of each hypnotic was added to 10 ml of water buffered with 10 mM Tris (pH 7.4) and 0.5 ml or 1 ml of octanol. The mixture was stirred overnight and then centrifuged to more fully separate the organic and aqueous phases. The relative hypnotic concentrations in each phase (i.e. the partition coefficient) were determined by high performance liquid chromatography as described for blood.
# [5] = bolus and continuous infusion, listed as cyclopropyl-MOC-metomidate
compound,measurement,setting,value
"COC(=O)C1(OC(=O)c2cncn2[C@H](C)c2ccccc2)CC1 [Cyclopropyl- methoxycarbonyl metomidate, cyclopropyl-methoxycarbonyl metomidate]",slope of duration of LORR vs logarithm of dose,Sprague-Dawley rats,approximately 10
same,concentration at 24 h,"in vivo; both, iv",< 0.1 ng/mL
same,half-life,"in vivo; both, iv",~10 min
same,half-life,in vivo,~20 min
same,first-phase decline of levels,"[1]; IV bolus 0.25-12 mg/kg, first 5-10 minutes",> 10 fold
same,venous blood concentration when sedated/anesthetized,[1]; [5],> 250 ng/mL and > 0.8 μM
same,concentration at 24 h,"[1]; both sexes, dog, in vivo, IV bolus, read-out: level in 24-hour PK samples (below level of quantification)",< 0.1 ng/mL
same,half-life,"[1]; both sexes, dog, in vivo, IV bolus, read-out: secondary terminal elimination half-life",5 to 10 min
same,half-life,"[1]; dog, in vivo, read-out: half-life of secondary phase of decline after infusion",~20 min
same,decline of levels after discontinuation of infusion,[1]; first 10-30 minutes after infusion,~50 fold
same,ED50,"rats; Rattus norvegicus, iv, read-out: ED50 ± SD",0.69 ± 0.04 mg/kg
same,hypnotic potency compared with methoxycarbonyl etomidate and etomidate,"rats; rat, in vivo",nearly an order of magnitude higher than that of methoxycarbonyl etomidate and similar to that of etomidate
same,in vivo duration of action compared with methoxycarbonyl etomidate and etomidate,"rats; rat, in vivo",intermediate between those of methoxycarbonyl etomidate and etomidate
same,half-life at 100 μM,"[2]; Sprague-Dawley, pooled heparinised whole blood, rat blood, 37° C., 100 μM, read-out: Blood Half-Life (95% CI)",0.57 min
same,in vitro metabolic half-life compared with methoxycarbonyl etomidate and etomidate,[2],intermediate between those of methoxycarbonyl etomidate and etomidate
same,first-phase decline of levels,"[3]; IV bolus 4-16 mg/kg, first 5 minutes",> 10 fold
same,venous blood concentration when sedated/anesthetized,[3]; [5],> 250 ng/mL and > 0.8 μM
same,decline of levels after discontinuation of infusion,[3]; first 30 minutes after 60-minute infusion,~50 fold
same,logD,[4],2.62
